Read-outs that look alike come from different tables or passages of the source.
System: PC-9 ERO1α KO clones (CRISPR)
Test: MTT viability assay, PC-9 ERO1α knockout clones
Assay type: cell-based
Conditions: 72 hours
Description: We utilized an MTT assay to determine the potency of the compounds for inhibiting cell growth. […] We next asked whether T151742 induced inhibition of cell growth was dependent on ERO1α expression. As shown in FIG. 6C two ERO1α deleted clones in the PC-9 cell line were isolated. Using an MTT assay to determine overall cellar viability, a non-targeted control (scramble), and both ERO1α knockout clones was subjected to treatment with T151742 for 72 hours (See FIG. 6D). […] Though only slight differences were observed between T151742 and EN-460 we tested the effects of these compounds in a clonogenic assay which is a better test for inhibition of self-renewal.
Cell Lines: PC-9 cell line used was obtained from Sigma Aldrich and grown in RPMI 1640 medium with 10% fetal bovine serum and 1% penicillin/streptomycin. HCC4006, U266, MM1.s, and Beas-2B cell lines were obtained from ATCC and cultured in either RPMI 1640 or DMEM with 10% fetal bovine serum and 1% penicillin/streptomycin. All cell lines were also checked for mycoplasma every six months and subjected to short tandem repeat (STR) analysis for cell line validation. CRISPR Cas9: CRISPR Guide RNA 2 targeting ERO1α and CRISPR Guide RNA 4 were purchased from Genscript in the pLentiCRISPR V2 plasmid containing puromycin/ampicillin selection marker. Lentivirus was made from HEK 293T cells by co-transfection with GuideRNA of interest, pVSVG, and pPAX2 plasmids. Lentivirus was collected after 48 hours and concentrated using 40% PEG8000. […] Plate was then read on the BioTek Cytation 5 at 530/590 nm. […] Plate was then read at 570 nm. Treated wells were all compared to DMSO control wells to calculate percent growth inhibition and the IC50 was calculated using GraphPad (log(inhibitor) vs growth inhibition). […] Images were then quantified using ImageJ. […] Cells were aliquoted at 1 million cells per PCR tube in PBS and heated in Bio-Rad T100 thermal cycler at indicated temperatures (RT, 46° C., 48° C., 50° C., 52° C., 54° C., 56°, 58° C., and 60° C.) for 3 minutes and aggregation temperature was determined by western blot analysis. […]

Structure (SMILES): CN(C)c1ccc(/C=C2\Oc3cc(O)ccc3C2=O)cc1 [Compound T151742]
- IC50 (read-out: IC50, MTT assay, PC-9 ERO1α KO Clone 1): 32.2 ± 1.09 µM
- IC50 (read-out: IC50, MTT assay, PC-9 ERO1α KO Clone 2): 41.5 ± 1.08 µM
- fold more resistant, ERO1α deleted cells compared to the control cell line (MTT): 2-3 fold

From US20250064773A1, “TARGETING ERO1 ALPHA WITH AURONE DERIVATIVES” (West Virginia University Board of Governors on behalf of …, priority 2021, published 2025)
